Measured values reported in patent US8748700B2, “Control of AAD-1 monocot volunteers in fields of dicot crops” (Dow AgroSciences, LLC., priority 2009, dated 2014).

Assays:
[1] = system: volunteer conventional or transgenic maize lines; test: Control of volunteer maize in a field planted with AAD-maize using alternative herbicides (Table 6, herbicide options); format: in vivo; conditions: for Herbicides option - Burndown/PRE: planted: any AAD-1 hybrid of the table
Description: In an embodiment, volunteer transgenic maize lines (containing the Clear Field trait, Roundup Ready or other Glyphosate Tolerant Trait, Liberty Link Trait, Imidazolonine tolerant trait, or any stacked combination thereof) or volunteer conventional maize lines are controlled within a field of transgenic AAD maize (AAD-1) by the application of aryloxyphenoxypropionate herbicide (Fops) including, but not limited to; quizalofop, haloxyfop, fenoxaprop, fluazifop, et al., their stereospecific isomers or racemic mixtures, and esters, acid, or salts thereof. In addition, the Fops herbicide may be applied with another herbicide(s) to control the volunteer maize lines described above.
The application of a given herbicide can be made before planting at pre-emergence/burndown or post-emergence after planting to control the volunteer conventional or transgenic maize lines. Table 6 lists the herbicides to be used at the different stages of planting (pre-emergence or post-emergence) to control volunteer conventional or transgenic maize. At or about a 1× Field Rate concentration of herbicide would be applied, as either a tank mix or alone, to the field for both pre-emergent and post-emergent volunteer control.
The control of conventional maize plants or transgenic maize plants containing a herbicide tolerant expression cassette within a field of AAD transgenic maize (either stacked with other herbicide tolerant traits or alone) would be applicable for the control of a herbicide tolerant transgenic monocot plant (including, but not limited too; corn, rice, sugar cane, switch grass, turf grass species, sorghum, barley, wheat, and oats, and durum) within a field being planted with an AAD monocot crop (including, but not limited too; corn, rice, sugar cane, switch grass, turf grass species, sorghum, barley, wheat, and oats, and durum). The example described above, in which volunteer transgenic herbicide tolerant maize plants are controlled in a field planted with AAD transgenic maize, is illustrative of the invention and not intended to restrict the scope of this embodiment.

[2] = system: Transgenic Hi-II maize plants containing the AAD-1 and PAT expression cassette (3404); test: Post-emergent herbicide application on transgenic maize containing AAD-1 and PAT (pDAB3404), visual injury assessment; format: in vivo; conditions: for Tolerance (−/+) 3404: 3404 = molecular stack of AAD-1 and PAT crossed with CP4 for glyphosate tolerance, V1-V3 stage, 1x Field Rate, visual injury after 14 days; for Comment (activity in words): applies to both WT and AAD-1 plants; for injury: WT and 3404 not distinguished
Description: Seed were planted into Metro Mix Media (Sun Gro Horticulture Inc., Bellevue, Wash.) and subirrigated with Hoagland's solution until wet, then allowed to gravity drain. Pots were placed in a glasshouse environment set to 27° C. until the germinated plants reached the V1-V3 growth stage. At or about, the V1-V3 growth stage, the maize plants were spayed using a track sprayer and a drop down nozzle calibrated to deliver a187 L/ha solution of herbicide at the 1× Field Rate (Table 7). After treatment the plants were placed in the greenhouse and scored via visual injury assessment after 14 days.

[3] = volunteer: CL Corn, planted: AAD-1 + PAT + AHAS
[4] = volunteer: CL Corn, planted: AAD-1 + PAT + GAT + ALS
[5] = volunteer: CL Corn, planted: AAD-1 + PAT + GT
[6] = volunteer: Conventional corn, planted: AAD-1 + PAT + AHAS
[7] = volunteer: Conventional corn, planted: AAD-1 + PAT + GAT + ALS
[8] = volunteer: Conventional corn, planted: AAD-1 + PAT + GT
[9] = volunteer: RR or GT Corn (text printed beside the CL Corn lines r30-r36)

## O=C(O)CNCP(=O)(O)O [Glyphosate]
[1]; volunteer: CL (or AHAS) + PAT
  Herbicides option - Burndown/PRE: Glyphosate
[1]; volunteer: CL Corn
  Herbicides option - Burndown/PRE: Glyphosate
[1]; volunteer: Conventional corn
  Herbicides option - Burndown/PRE: Glyphosate
[1]; volunteer: GAT + ALS
  Herbicides option - Burndown/PRE: Glyphosate
[1]; volunteer: LL Corn
  Herbicides option - Burndown/PRE: Glyphosate

## CCSC(C)CC1CC(=O)C(/C(CC)=N/OC/C=C/Cl)=C(O)C1 (stereo not shown) [clethodim]
[2]
  Tolerance (−/+) 3404: −

## C[C@@H](Oc1ccc(Oc2ncc(Cl)cc2F)cc1)C(=O)O [clodinafop]
[2]
  Tolerance (−/+) 3404: +

## CCCCOC(=O)[C@@H](C)Oc1ccc(Oc2ccc(C#N)cc2F)cc1 [cyhalofop-butyl]
[2]
  Tolerance (−/+) 3404: +

## COC(=O)C(C)Oc1ccc(Oc2ccc(Cl)cc2Cl)cc1 (stereo not shown) [diclofop-methyl]
[2]
  Tolerance (−/+) 3404: −
  Comment (activity in words): Not active on grasses

## CCOC(=O)[C@@H](C)Oc1ccc(Oc2nc3ccc(Cl)cc3o2)cc1 [fenoxaprop-P-ethyl]
[2]
  Tolerance (−/+) 3404: +

## CCCCOC(=O)[C@@H](C)Oc1ccc(Oc2ccc(C(F)(F)F)cn2)cc1 [fluazifop-P-butyl]
[2]
  Tolerance (−/+) 3404: +

## CP(=O)(O)CCC(N)C(=O)O (stereo not shown) [glufosinate-ammonium]
[2]
  Tolerance (−/+) 3404: +

## CP(=O)(O)CCC(N)C(=O)O (stereo not shown) [glufosinate]
[1]; volunteer: CL (or AHAS) + GT, planted: AAD-1 + PAT
  Herbicides option - POST: glufosinate
[1]; volunteer: CL (or AHAS) + GT, planted: AAD-1 + PAT + AHAS
  Herbicides option - POST: glufosinate
[1]; volunteer: CL (or AHAS) + GT, planted: AAD-1 + PAT + GAT + ALS
  Herbicides option - POST: glufosinate
[1]; volunteer: CL (or AHAS) + GT, planted: AAD-1 + PAT + GT
  Herbicides option - POST: glufosinate
[1]; volunteer: CL (or AHAS) + GT
  Herbicides option - Burndown/PRE: glufosinate
[1]; volunteer: CL (or AHAS) + PAT
  Herbicides option - Burndown/PRE: glufosinate
[1]; volunteer: CL Corn, planted: AAD-1 + PAT
  Herbicides option - POST: glufosinate
[1]; [3]
  Herbicides option - POST: glufosinate
[1]; [4]
  Herbicides option - POST: glufosinate
[1]; [5]
  Herbicides option - POST: glufosinate
[1]; volunteer: CL Corn
  Herbicides option - Burndown/PRE: glufosinate
[1]; volunteer: Conventional corn, planted: AAD-1 + PAT
  Herbicides option - POST: glufosinate
[1]; [6]
  Herbicides option - POST: glufosinate
[1]; [7]
  Herbicides option - POST: glufosinate
[1]; [8]
  Herbicides option - POST: glufosinate
[1]; volunteer: Conventional corn
  Herbicides option - Burndown/PRE: glufosinate
[1]; volunteer: GAT + ALS, planted: AAD-1 + PAT
  Herbicides option - POST: glufosinate
[1]; volunteer: GAT + ALS, planted: AAD-1 + PAT + AHAS
  Herbicides option - POST: glufosinate
[1]; volunteer: GAT + ALS, planted: AAD-1 + PAT + GAT + ALS
  Herbicides option - POST: glufosinate
[1]; volunteer: GAT + ALS, planted: AAD-1 + PAT + GT
  Herbicides option - POST: glufosinate
[1]; volunteer: GAT + ALS
  Herbicides option - Burndown/PRE: glufosinate
[1]; [9]
  Herbicides option - Burndown/PRE: glufosinate
[1]; volunteer: RR or GT Corn, planted: AAD-1 + PAT
  Herbicides option - POST: glufosinate
[1]; volunteer: RR or GT Corn, planted: AAD-1 + PAT + AHAS
  Herbicides option - POST: glufosinate
[1]; volunteer: RR or GT Corn, planted: AAD-1 + PAT + GAT + ALS
  Herbicides option - POST: glufosinate
[1]; volunteer: RR or GT Corn, planted: AAD-1 + PAT + GT
  Herbicides option - POST: glufosinate

## CC(C)N.O=C(O)CNCP(=O)(O)O [glyphosate-isopropylammonium]
[2]
  Tolerance (−/+) 3404: +

## O=C(O)CNCP(=O)(O)O [glyphosate]
[1]; volunteer: CL (or AHAS) + PAT, planted: AAD-1 + AHAS
  Herbicides option - POST: glyphosate
[1]; volunteer: CL (or AHAS) + PAT, planted: AAD-1 + GAT + ALS
  Herbicides option - POST: glyphosate
[1]; volunteer: CL (or AHAS) + PAT, planted: AAD-1 + GT
  Herbicides option - POST: glyphosate
[1]; volunteer: CL (or AHAS) + PAT, planted: AAD-1 + PAT + AHAS
  Herbicides option - POST: glyphosate
[1]; volunteer: CL (or AHAS) + PAT, planted: AAD-1 + PAT + GAT + ALS
  Herbicides option - POST: glyphosate
[1]; volunteer: CL (or AHAS) + PAT, planted: AAD-1 + PAT + GT
  Herbicides option - POST: glyphosate
[1]; volunteer: CL Corn, planted: AAD-1 + AHAS
  Herbicides option - POST: glyphosate
[1]; volunteer: CL Corn, planted: AAD-1 + GAT + ALS
  Herbicides option - POST: glyphosate
[1]; volunteer: CL Corn, planted: AAD-1 + GT
  Herbicides option - POST: glyphosate
[1]; [3]
  Herbicides option - POST: glyphosate
[1]; [4]
  Herbicides option - POST: glyphosate
[1]; [5]
  Herbicides option - POST: glyphosate
[1]; volunteer: Conventional corn, planted: AAD-1 + AHAS
  Herbicides option - POST: glyphosate
[1]; volunteer: Conventional corn, planted: AAD-1 + GAT + ALS
  Herbicides option - POST: glyphosate
[1]; volunteer: Conventional corn, planted: AAD-1 + GT
  Herbicides option - POST: glyphosate
[1]; [6]
  Herbicides option - POST: glyphosate
[1]; [7]
  Herbicides option - POST: glyphosate
[1]; [8]
  Herbicides option - POST: glyphosate
[1]; volunteer: LL Corn, planted: AAD-1 + AHAS
  Herbicides option - POST: glyphosate
[1]; volunteer: LL Corn, planted: AAD-1 + GAT + ALS
  Herbicides option - POST: glyphosate
[1]; volunteer: LL Corn, planted: AAD-1 + GT
  Herbicides option - POST: glyphosate
[1]; volunteer: LL Corn, planted: AAD-1 + PAT + AHAS
  Herbicides option - POST: glyphosate
[1]; volunteer: LL Corn, planted: AAD-1 + PAT + GAT + ALS
  Herbicides option - POST: glyphosate
[1]; volunteer: LL Corn, planted: AAD-1 + PAT + GT
  Herbicides option - POST: glyphosate

## COC(=O)[C@@H](C)Oc1ccc(Oc2ncc(C(F)(F)F)cc2Cl)cc1 [haloxyfop-methyl R]
[2]
  Tolerance (−/+) 3404: +

## COCc1cnc(C2=NC(C)(C(C)C)C(=O)N2)c(C(=O)O)c1 (stereo not shown) [imazamox]
[2]
  Tolerance (−/+) 3404: −

## CC(C)C1(C)N=C(c2nc3ccccc3cc2C(=O)O)NC1=O (stereo not shown) [imazaquin]
[2]
  Tolerance (−/+) 3404: −/+
[2]; @ 50 g ai/ha
  injury: Need higher than 50 g ai/ha rate (50% injury @

## CCc1cnc(C2=NC(C)(C(C)C)C(=O)N2)c(C(=O)O)c1 (stereo not shown) [imazethapyr]
[2]
  Tolerance (−/+) 3404: −/+
[2]; @ 70 g ai/ha
  injury: Need higher than 70 g ai/ha rate (50% injury @

## C[n+]1ccc(-c2cc[n+](C)cc2)cc1 [paraquat]
[1]; volunteer: CL (or AHAS) + GT
  Herbicides option - Burndown/PRE: paraquat
[1]; volunteer: CL (or AHAS) + PAT
  Herbicides option - Burndown/PRE: paraquat
[1]; volunteer: CL Corn
  Herbicides option - Burndown/PRE: paraquat
[1]; volunteer: Conventional corn
  Herbicides option - Burndown/PRE: paraquat
[1]; volunteer: GAT + ALS + PAT
  Herbicides option - Burndown/PRE: paraquat
[1]; volunteer: GAT + ALS
  Herbicides option - Burndown/PRE: paraquat
[1]; volunteer: GT + CL (or AHAS) + PAT
  Herbicides option - Burndown/PRE: paraquat
[1]; volunteer: GT + PAT
  Herbicides option - Burndown/PRE: paraquat
[1]; volunteer: LL Corn
  Herbicides option - Burndown/PRE: paraquat
[1]; [9]
  Herbicides option - Burndown/PRE: paraquat

## CCc1cc(C)cc(CC)c1-c1c(OC(=O)C(C)(C)C)n2n(c1=O)CCOCC2 [pinoxaden]
[2]
  Tolerance (−/+) 3404: +/−
  Comment (activity in words): Not active but small amt of control on both WT

## CC(Oc1ccc(Oc2cnc3cc(Cl)ccc3n2)cc1)C(=O)O (stereo not shown) [quizalofop]
[2]
  Tolerance (−/+) 3404: +

## CCC/C(=N\OCC)C1=C(O)CC(CC(C)SCC)CC1=O (stereo not shown) [sethoxydim]
[2]
  Tolerance (−/+) 3404: −

## CCO/N=C(\CC)C1=C(O)CC(c2c(C)cc(C)cc2C)CC1=O (stereo not shown) [tralkoxydim]
[2]
  Tolerance (−/+) 3404: −
